# Reference: patent US20180085373A1, “THERAPEUTIC AND/OR PROPHYLACTIC AGENT FOR LEWY BODY DISEASE” (KYOWA HAKKO KIRIN CO., LTD., priority 2015, published 2018)
# Experiments:
# [1] = system: Slc:ICR mice; assay: Spontaneous alternation task test (Y-maze), evaluation of cognitive function in NAC61-95 α-synucleinopathy model; format: in vivo; conditions: NAC61-95-treated mice
# Protocol: (§1) By reference to articles (Science, 338, p. 949 (2012); Behavioral Brain Research, 208, p. 274 (2010)), an animal model capable of confirming a therapeutic and/or prophylactic effect on α-synucleinopathy (for example, Lewy body disease, the Lewy body disease includes cognitive impairment in Parkinson's disease, diffuse Lewy body disease, dementia with Lewy bodies, movement disorder associated with Lewy body disease and the like) was prepared as follows.
# (§2) The cognitive function was evaluated using a spontaneous alternation task. The spontaneous alternation task is known as an evaluation system of cognitive function utilizing properties of an animal to willingly explore a novel environment (Neuroscience and Biobehavioral Reviews 28, p. 497 (2004)). That is, if the animal remembers the arm into which it entered previously in an exploration in a Y-maze apparatus, the behavior of spontaneous entry into a different arm was expressed by an alternation behavior rate, and used as an index of cognitive function. The motor function was evaluated by analyzing gait function under natural walk conditions using a gait function/automatic gait analysis system.
# (§3) NAC61-95 (custom, Sigma) was dissolved in PBS to prepare 4 μg/μL NAC61-95 solution.
# Under pentobarbital (Somnopentyl, Kyoritsuseiyaku) (50 mg/kg, i.p.) anesthesia, 5 μL of NAC61-95 solution was injected using a Hamilton syringe (10 μL) equipped with a double needle (27G, needle length 3 mm) into the right lateral cerebral ventricle of Slc:ICR mice (male, Japan SLC) over about 1 minute, and stood for 1 minute to induce cognitive impairment and/or movement disorder. […]
# Mice were brought into the experiment room from the previous day of test for habituation. […] Entry of all four limbs of a mouse into one arm was defined as entry into the arm, and the order of entry of the mouse into the arm was recorded. A behavior of successive entry into all three different arms was defined as spontaneous alternation behavior, and the percentage of alternation behavior was calculated by the following calculation formula. […]
# [2] = system: Slc:ICR mice; assay: Gait test (CatWalk XT), evaluation of motor function in NAC61-95 α-synucleinopathy model; format: in vivo; conditions: NAC61-95-treated mice
# Protocol: as §1, §2, §3
# Under pentobarbital (Somnopentyl, Kyoritsuseiyaku) (50 mg/kg, i.p.) anesthesia, 5 μL of NAC61-95 solution was injected using a Hamilton syringe (10 μL) equipped with a double needle (27G, needle length 3 mm) into the right lateral cerebral ventricle of Slc:ICR mice (male, Japan SLC) over about 1 minute, and stood for 1 minute to induce cognitive impairment and/or movement disorder.
# As for a sham treatment group, under pentobarbital anesthesia, 5 μL of PBS was injected using a Hamilton syringe equipped with a double needle into the right lateral cerebral ventricle of Slc:ICR mice over about 1 minute, and stood for 1 minute.
# A gait function/automatic gait analysis system (CatWalk XT, ver.9.1, Noldus) was used. The system consisted of a walkway with pressure-sensitive luminescent glass and a light source, a luminescent ceiling, a highly sensitive high-speed camera and an analysis software, and the gait was analyzed by digitizing the brightness of the light emitted by the pressure-sensitive luminescent glass in response to the pressure. The gait data was automatically recorded and analyzed by the analysis software only when a mouse moved straight forward without stopping in the predetermined area on the walkway.
# The mice were brought into the experiment room with light off and habituated for not less than 1 hour. A mouse was placed in the apparatus, and allowed to walk freely until 6 running data were obtained for each individual. The first three running data amenable to analyze were taken up, and their mean was calculated.
# At 60 minutes before the test, istradefylline (suspended in 0.5 w/v % aqueous MC solution, and prepared to 0.5 mL per 100 g body weight of a mouse on the administration day) was orally administered at a dose of 1.0 mg/kg, or a vehicle (0.5 w/v % aqueous MC solution) free of the test compound was orally administered at 0.5 mL per 100 g body weight of a mouse on the administration day.
# [3] = 1.0 mg/kg orally 60 minutes before the test, mean±standard error
structure (smiles),measurement,setting,value
CCn1c(=O)c2c(nc(/C=C/c3ccc(OC)c(OC)c3)n2C)n(CC)c1=O [istradefylline],cognitive impairment by NAC61-95 treatment,[1]; 1.0 mg/kg orally,improved
same,alternation behavior (%),[1]; [3],66.4 ± 1.4%
same,alternation behavior as compared to the vehicle administration group,"[1]; 1.0 mg/kg orally, p<0.05, Aspin-Welch test",significantly high
same,gait pattern (mean) AA,"[2]; AA: right forepaw→right hindpaw→left forepaw→left hindpaw, 1.0 mg/kg orally, mean±standard error",4.3 ± 2.8
same,gait pattern (mean) AB,"[2]; AB: right forepaw→left hindpaw→left forepaw→right hindpaw, 1.0 mg/kg orally, mean±standard error",76.7 ± 7.1
same,gait pattern (mean) CA,"[2]; CA: right forepaw→left forepaw→right hindpaw→left hindpaw, 1.0 mg/kg orally, mean±standard error",10.3 ± 3.6
same,gait pattern (mean) CB,"[2]; CB: right forepaw→left hindpaw→right hindpaw→left forepaw, 1.0 mg/kg orally, mean±standard error",8.7 ± 4.3
same,change in gait pattern CB,[2]; 1.0 mg/kg orally,decreased
same,"improvement ratio, gait pattern CB",[2]; 1.0 mg/kg orally,100%
same,"improvement ratio, maximum brightness ratio of the left hindpaw",[2]; 1.0 mg/kg orally,111%
same,movement disorder induced by NAC61-95 treatment,[2]; 1.0 mg/kg orally,improved
same,"maximum brightness ratio, left forepaw",[2]; [3],51.5 ± 1.8
same,"maximum brightness ratio, left hindpaw",[2]; [3],65.3 ± 1.7
same,"maximum brightness ratio, right forepaw",[2]; [3],52.5 ± 2.4
same,"maximum brightness ratio, right hindpaw",[2]; [3],61.9 ± 2.4
same,"print area, left forepaw",[2]; [3],0.35 ± 0.02
same,"print area, left hindpaw",[2]; [3],0.38 ± 0.04
same,"print area, right forepaw",[2]; [3],0.33 ± 0.03
same,"print area, right hindpaw",[2]; [3],0.38 ± 0.04
same,change in the maximum brightness ratio of the left hindpaw,"[2]; 1.0 mg/kg orally, p<0.05, Student's t-test",significant increase
same,gait pattern (median) AA,"[2]; median, 1.0 mg/kg orally",0.0
same,gait pattern (median) AB,"[2]; median, 1.0 mg/kg orally",84.6
same,gait pattern (median) CA,"[2]; median, 1.0 mg/kg orally",6.7
same,gait pattern (median) CB,"[2]; median, 1.0 mg/kg orally",0.0
